What was measured:
[1] = test system: MET; experiment: MET biochemical kinase assay; set-up: species or system human; concentration or dose not given beside the values
In short: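 MET from cell lysates captured on ELISA plates via rabbit anti-MET cytoplasmic-domain antibody; compounds added and kinase reaction run in ATP and divalent-metal buffer. Receptor phosphotyrosine detected with HRP-conjugated anti-phosphotyrosine antibody and TMB colorimetry.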

[2] = target: T1, FLK-1 receptor (Mus musculus, UniProt P35918); experiment: FLK-1 ELISA (kinase activity of the FLK-1 receptor in FLK-1/NIH3T3 cells, VEGF stimulated); assay type: cell-based
T1 construct: expressed in transfected cells; host or cells: NIH3T3 C7#3
In short: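 FLK-1-expressing NIH3T3 C7#3 cells, starved overnight in 0.1% FBS medium, were treated with compounds at a 1:200 final dilution (0.5% DMSO) for 2 h at 37 °C, with VEGF stimulation. FLK-1 kinase activity was read by ELISA on anti-rabbit IgG plates using affinity-purified anti-FLK-1 antiserum.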

T1 sequence (P35918 20-1345): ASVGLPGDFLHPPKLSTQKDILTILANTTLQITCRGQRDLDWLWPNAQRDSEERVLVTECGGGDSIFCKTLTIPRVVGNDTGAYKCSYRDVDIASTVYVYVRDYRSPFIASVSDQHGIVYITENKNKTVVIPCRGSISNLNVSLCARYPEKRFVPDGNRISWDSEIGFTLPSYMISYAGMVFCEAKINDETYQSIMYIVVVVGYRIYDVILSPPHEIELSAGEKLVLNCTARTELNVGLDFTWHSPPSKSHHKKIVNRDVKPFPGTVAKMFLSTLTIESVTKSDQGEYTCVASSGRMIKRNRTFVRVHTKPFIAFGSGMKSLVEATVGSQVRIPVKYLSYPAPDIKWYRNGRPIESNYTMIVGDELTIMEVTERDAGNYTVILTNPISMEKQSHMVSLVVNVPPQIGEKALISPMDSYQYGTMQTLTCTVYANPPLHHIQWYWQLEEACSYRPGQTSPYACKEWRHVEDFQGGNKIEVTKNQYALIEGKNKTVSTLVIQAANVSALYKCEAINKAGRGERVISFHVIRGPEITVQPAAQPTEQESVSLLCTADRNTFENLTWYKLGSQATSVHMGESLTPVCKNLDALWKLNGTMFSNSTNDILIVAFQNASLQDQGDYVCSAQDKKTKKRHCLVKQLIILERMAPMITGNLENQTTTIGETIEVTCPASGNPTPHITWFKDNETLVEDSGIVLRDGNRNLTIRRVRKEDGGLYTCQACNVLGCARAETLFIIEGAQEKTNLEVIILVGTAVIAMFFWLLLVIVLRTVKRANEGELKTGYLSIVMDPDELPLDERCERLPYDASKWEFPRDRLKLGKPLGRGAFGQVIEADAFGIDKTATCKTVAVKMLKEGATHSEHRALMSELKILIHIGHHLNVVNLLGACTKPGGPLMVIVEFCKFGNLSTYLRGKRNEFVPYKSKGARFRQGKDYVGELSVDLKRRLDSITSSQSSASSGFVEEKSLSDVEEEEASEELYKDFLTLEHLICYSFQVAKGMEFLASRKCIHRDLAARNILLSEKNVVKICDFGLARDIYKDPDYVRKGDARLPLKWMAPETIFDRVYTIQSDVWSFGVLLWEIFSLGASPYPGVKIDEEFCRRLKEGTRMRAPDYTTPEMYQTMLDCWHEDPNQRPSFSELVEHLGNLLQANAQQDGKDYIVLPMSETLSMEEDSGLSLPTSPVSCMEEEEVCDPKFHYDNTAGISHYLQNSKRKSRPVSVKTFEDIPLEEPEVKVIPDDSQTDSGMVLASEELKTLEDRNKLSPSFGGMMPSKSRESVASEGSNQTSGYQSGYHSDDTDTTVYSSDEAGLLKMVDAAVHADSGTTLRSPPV

For `COc1cc(N(C)C)ccc1C=C1C(=O)Nc2ccc(I)cc21` [10728/B05], the “Met Kinase % Inhibition” value [1] was 60.4% and the “Fik Kinase %Inhibition” value [2] was -12.3%.
In the case of `O=C1Nc2ccc(I)cc2C1=Cc1cccc(C(F)(F)F)c1F` [10728/B07], the “Met Kinase % Inhibition” value [1] was 82.2% and the “Fik Kinase %Inhibition” value [2] was 31.4%.
In the case of `O=C1Nc2ccc(I)cc2C1=Cc1cc(C(F)(F)F)ccc1F` [10728/B08], the “Met Kinase % Inhibition” value [1] was 77.0% and the “Fik Kinase %Inhibition” value [2] was 14.8%.
With `O=C1Nc2ccc(I)cc2C1=Cc1c(F)cccc1C(F)(F)F` [10728/B09] the “Met Kinase % Inhibition” value [1] was 81.7% and the “Fik Kinase %Inhibition” value [2] was 1.7%.
For `O=C(O)COc1ccccc1C=C1C(=O)Nc2ccc(I)cc21` [10728/B10], the “Met Kinase % Inhibition” value [1] was 79.3% and the “Fik Kinase %Inhibition” value [2] was 3.9%.
`COc1cc(C=C2C(=O)Nc3ccc(I)cc32)cc2c1OCO2` [10728/B11] was tested, and the “Met Kinase % Inhibition” value [1] was 80.3% and the “Fik Kinase %Inhibition” value [2] was -1.0%.
With `COc1ccc(OC)c(C=C2C(=O)Nc3ccc(Br)c(C)c32)c1` [10728/C02] the “Met Kinase % Inhibition” value [1] was 15.5% and the “Fik Kinase %Inhibition” value [2] was -32.1%.
For `COc1cccc(OC)c1C=C1C(=O)Nc2ccc(Br)c(C)c21` [10728/C03], the “Met Kinase % Inhibition” value [1] was 16.9% and the “Fik Kinase %Inhibition” value [2] was 10.5%.
With `COc1cc(C=C2C(=O)Nc3ccc(Br)c(C)c32)cc(OC)c1` [10728/C04] the “Met Kinase % Inhibition” value [1] was 33.6% and the “Fik Kinase %Inhibition” value [2] was -0.0%.
In the case of `COc1cc(N(C)C)ccc1C=C1C(=O)Nc2ccc(Br)c(C)c21` [10728/C05], the “Met Kinase % Inhibition” value [1] was 33.7% and the “Fik Kinase %Inhibition” value [2] was -21.7%.
`Cc1c(Br)ccc2c1C(=Cc1ccc3c(c1)Cc1ccccc1-3)C(=O)N2` [10728/C06] was tested, and the “Met Kinase % Inhibition” value [1] was 22.9% and the “Fik Kinase %Inhibition” value [2] was 8.4%.
For `Cc1c(Br)ccc2c1C(=Cc1cccc(C(F)(F)F)c1F)C(=O)N2` [10728/C07], the “Met Kinase % Inhibition” value [1] was 46.3% and the “Fik Kinase %Inhibition” value [2] was -7.2%.
With `Cc1c(Br)ccc2c1C(=Cc1cc(C(F)(F)F)ccc1F)C(=O)N2` [10728/C08] the “Met Kinase % Inhibition” value [1] was 25.5% and the “Fik Kinase %Inhibition” value [2] was -2.2%.
`Cc1c(Br)ccc2c1C(=Cc1c(F)cccc1C(F)(F)F)C(=O)N2` [10728/C09] was tested, and the “Met Kinase % Inhibition” value [1] was 31.6% and the “Fik Kinase %Inhibition” value [2] was 14.5%.
For `Cc1c(Br)ccc2c1C(=Cc1ccccc1OCC(=O)O)C(=O)N2` [10728/C10], the “Met Kinase % Inhibition” value [1] was 28.7% and the “Fik Kinase %Inhibition” value [2] was 6.1%.
For `COc1cc(C=C2C(=O)Nc3ccc(Br)c(C)c32)cc2c1OCO2` [10728/C11], the “Met Kinase % Inhibition” value [1] was 45.2% and the “Fik Kinase %Inhibition” value [2] was -10.1%.
With `CNS(=O)(=O)c1ccc2c(c1)C(=Cc1cc(OC)ccc1OC)C(=O)N2` [10728/D02] the “Met Kinase % Inhibition” value [1] was 21.4% and the “Fik Kinase %Inhibition” value [2] was -0.3%.
For `CNS(=O)(=O)c1ccc2c(c1)C(=Cc1c(OC)cccc1OC)C(=O)N2` [10728/D03], the “Met Kinase % Inhibition” value [1] was 13.5% and the “Fik Kinase %Inhibition” value [2] was 10.2%.
For `CNS(=O)(=O)c1ccc2c(c1)C(=Cc1cc(OC)cc(OC)c1)C(=O)N2` [10728/D04], the “Met Kinase % Inhibition” value [1] was 23.1% and the “Fik Kinase %Inhibition” value [2] was 6.8%.
For `CNS(=O)(=O)c1ccc2c(c1)C(=Cc1ccc(N(C)C)cc1OC)C(=O)N2` [10728/D05], the “Met Kinase % Inhibition” value [1] was 29.5% and the “Fik Kinase %Inhibition” value [2] was 4.9%.
In the case of `CNS(=O)(=O)c1ccc2c(c1)C(=Cc1ccc3c(c1)Cc1ccccc1-3)C(=O)N2` [10728/D06], the “Met Kinase % Inhibition” value [1] was 23.2% and the “Fik Kinase %Inhibition” value [2] was 10.4%.

Source: patent EP1247803A2, “Indolinone compounds suitable for modulation of protein kinases” (Sugen, Inc., priority 1996, dated 1998)
